# How the values were obtained:
# HCT-116 [1] = test: Cytotoxicity against human HCT-116 cells assessed as lethal dose; assay type: functional; settings: read-out: LD50 (the source's name)
# RAW264.7 = test: Inhibition of NO production in LPS-stimulated mouse RAW264.7 cells at 10 uM relative to control; assay type: functional
# [2] = Hemolytic activity against human erythrocytes assessed as induction of cell lysis; assay type: toxicity, cell-based, Erythrocyte
# [3] = test system: Panel NCI-60 (60 carcinoma cell lines); test: Cytotoxicity against human Panel NCI-60 (60 carcinoma cell lines) cells assessed as cell growth inhibition; assay type: functional, cell-based
# Cryptococcus neoformans = test: Antimicrobial activity against Cryptococcus neoformans assessed as microbial growth inhibition micro broth dilution assay; assay type: functional, organism-based
# Candida albicans = test: Antimicrobial activity against Candida albicans assessed as microbial growth inhibition micro broth dilution assay; assay type: functional, organism-based
# Staphylococcus aureus = test: Antimicrobial activity against Staphylococcus aureus assessed as microbial growth inhibition micro broth dilution assay; assay type: functional, organism-based
# Bacillus subtilis = test: Antimicrobial activity against Bacillus subtilis assessed as microbial growth inhibition micro broth dilution assay; assay type: functional, organism-based
# Candida parapsilosis = test: Antimicrobial activity against Candida parapsilosis assessed as microbial growth inhibition micro broth dilution assay; assay type: functional, organism-based; settings: Lodderomyces parapsilosis
# HCT-116 [4] = test: Cytotoxicity against human HCT-116 cells assessed as cell growth inhibition incubated for 72 hrs by Cell Titer Glo assay; assay type: functional, cell-based; settings: HCT-116, 72 h
# [5] = Cytotoxicity against human BJ cells assessed as cell growth inhibition incubated for 72 hrs by Cell Titer Glo assay relative to control; assay type: toxicity, cell-based
# A549 [6] = test: Cytotoxicity against human A549 cells assessed as cell growth inhibition; assay type: functional, cell-based
# HL-60 [7] = test: Cytotoxicity against human HL-60 cells assessed as cell growth inhibition; assay type: functional, cell-based
# MCF7 [8] = test: Cytotoxicity against human MCF7 cells assessed as cell growth inhibition by Alamar blue staining based fluorescence assay; assay type: functional
# HCT-116 [9] = test: Cytotoxicity against human HCT-116 cells assessed as cell growth inhibition by Alamar blue staining based fluorescence assay; assay type: functional
# [10] = Cytotoxicity against human HTB26 cells assessed as cell growth inhibition by Alamar blue staining based fluorescence assay; assay type: functional
# [11] = Cytotoxicity against African green monkey cells assessed as cell growth inhibition by Alamar blue staining based fluorescence assay; assay type: toxicity; settings: African green monkey (Chlorocebus sabaeus), Vero cells
# Macrophage = test: Cytotoxicity against mouse spleen macrophage assessed as cell growth inhibition; assay type: functional, cell-based
# T-cell = test: Cytotoxicity against mouse spleen T-cells assessed as cell growth inhibition; assay type: functional, cell-based
# HL-60 [12] = test: Cytotoxicity against human HL-60 cells assessed as cell growth inhibition by MTT assay; assay type: functional, cell-based
# A549 [13] = test: Cytotoxicity against human A549 cells assessed as cell growth inhibition by SRB assay; assay type: functional, cell-based
# NCI-H460 [14] = test: Cytotoxicity against human NCI-H460 cells assessed as cell growth inhibition incubated for 48 hrs by MTT assay; assay type: functional, cell-based; settings: NCI-H460, 48 h
# NCI-H460 [15] = test: Induction of apoptosis in human NCI-H460 cells assessed as fold increase in […] at 35 uM incubated for 48 hrs by Annexin V-FITC/PI staining based flow cytometry; assay type: functional
# MCF7 [16] = test: Antitumor activity against Adriamycin-resistant human MCF7 cells xenografted in athymic nude BALB/c mouse assessed as tumor growth inhibition at 5 mg/kg, iv measured every 4 days for 40 days by caliper method in presence of Adriamycin relative to control; assay type: functional; settings: MCF7, 960 h, time 40 day, read-out: TGI
# MCF7 [17] = test: Antitumor activity against human MCF7 cells xenografted in athymic nude BALB/c mouse assessed as tumor growth inhibition at 10 mg/kg, iv measured every 4 days for 40 days by caliper method relative to control; assay type: functional; settings: MCF7, 960 h, time 40 day, read-out: TGI
# MCF7 [18] = test: Antitumor activity against human MCF7 cells xenografted in athymic nude BALB/c mouse assessed as tumor growth inhibition at 20 mg/kg, iv measured every 4 days for 40 days by caliper method relative to control; assay type: functional; settings: MCF7, 960 h, time 40 day, read-out: TGI
# MCF7 [19] = test: Antitumor activity against human MCF7 cells xenografted in athymic nude BALB/c mouse assessed as tumor growth inhibition at 20 mg/kg, iv measured every 4 days for 40 days by caliper method relative to PTX; assay type: functional; settings: MCF7, 960 h, time 40 day, read-out: TGI
# MCF7 [20] = test: Antitumor activity against Adriamycin-resistant human MCF7 cells xenografted in athymic nude BALB/c mouse assessed as tumor growth inhibition at 5 mg/kg, iv measured every 4 days for 40 days by caliper method relative to control; assay type: functional; settings: MCF7, 960 h, time 40 day, read-out: TGI
# MCF7 [21] = test: Antitumor activity against human MCF7 cells xenografted in athymic nude BALB/c mouse assessed as tumor growth inhibition at 5 mg/kg, iv measured every 4 days for 40 days by caliper method relative to control; assay type: functional; settings: MCF7, 960 h, time 40 day, read-out: TGI
# NCI-H446 = test: Cytotoxicity against human NCI-H446 assessed as inhibition of cell viability incubated for 48 hrs by MTT assay; assay type: functional, cell-based; settings: NCI-H446, 48 h
# NCI-H460 [22] = test: Cytotoxicity against human NCI-H460 assessed as inhibition of cell viability incubated for 48 hrs by MTT assay; assay type: functional, cell-based; settings: NCI-H460, 48 h
# SMMC-7721 [23] = test: Cytotoxicity against human SMMC-7721 cells assessed as cell growth inhibition incubated for 24 hrs by CCK8 assay; assay type: functional, cell-based; settings: SMMC-7721, 24 h
# SMMC-7721 [24] = test: Cytotoxicity against human SMMC-7721 cells assessed as cell growth inhibition incubated for 48 hrs by CCK8 assay; assay type: functional, cell-based; settings: SMMC-7721, 48 h
structure (smiles),measurement,setting,value
COc1cc(OC)c2c(c1)[C@H]([C@H](O)/C=C(\C)CC[C@@H]1C(C)=CC[C@@H]3C(C)(C)CCC[C@@]13C)CCC2=O,CC50,HCT-116 [1],2 µg/mL
CC1=CC(=O)C[C@@]2(C)CC[C@@H](C(C)CO)C[C@H]12 (stereo partly drawn),inhibition at 10 µM,RAW264.7,22.5%
Cc1cc2c(c(=O)o1)C[C@@H]1[C@@]3(C)[C@H](O)CC(=O)OC(C)(C)[C@@H]3[C@H](O)C[C@@]1(C)O2,EC50,[2],1150 µM
CC1=CCC[C@@H](C)[C@]1(C)CC[C@@]1(C)c2c(O)cc3c(c2O[C@@H]1C)C(=O)C(C)=C(O)C3=O,IC50,[3],10 µM
CC1=CC[C@@](O)([C@@]2(C)CCC(=O)O2)C[C@@H]1O,IC50,Cryptococcus neoformans,3 µg/mL
same,IC50,Candida albicans,3 µg/mL
same,IC50,Staphylococcus aureus,3 µg/mL
same,IC50,Bacillus subtilis,3 µg/mL
same,IC50,Candida parapsilosis,3 µg/mL
CC1(C)CCC[C@]2(C)[C@H]3Cc4c(c(O)c(O)c5nc(C(=O)O)ccc45)O[C@]3(C)CC[C@@H]12,IC50,HCT-116 [4],10 µM
same,inhibition at 72 h,[5],43%
CC1(C)CCC[C@@](C)(c2ccc(CO)cc2O)O1,IC50,A549 [6],> 50 µg/mL
same,IC50,HL-60 [7],> 50 µg/mL
C=C(C)C1C[C@H](O)C2(C)CCCC3C2C1CC(C)C3(C)CC/C(C)=C/[C@@H](O)[C@@H]1CCC(=O)c2c(OC)cc(OC)cc21 (stereo partly drawn),IC50,MCF7 [8],7.8 µM
same,IC50,HCT-116 [9],11.9 µM
same,IC50,[10],10.1 µM
same,IC50,[11],23.7 µM
CC(=O)c1nncc2c1C(=O)C1=C(OC(C)(C)[C@H](Cl)C1=O)[C@]2(O)C[C@H]1C(C)(C)[C@@H](Cl)CC[C@]1(C)O,IC50,Macrophage,40 µM
same,IC50,T-cell,40 µM
CO[C@]12C=C3[C@@H]4O[C@@H]4[C@H](OC(C)=O)[C@H](C)[C@@]3(C)C[C@]13O[C@]3(C)CO2,IC50,HL-60 [12],28.3 µM
same,IC50,A549 [13],5.2 µM
C[C@]12C3=CC(=O)OCC3=C[C@H]3OC(=O)[C@@](C)(C=C[C@H]1O)[C@H]32 [ASPEROLIDE A],IC50,NCI-H460 [14],17.7 µM
same,fold change (FC),NCI-H460 [15],2.9
CO[C@H]1O[C@@]2(OC)C[C@@](C)(O)[C@H]3C[C@@]4(C)CC[C@H]([C@@H](C)/C=C\C=C(C)C)[C@@H]4C/C=C/1[C@H]32 [OPHIOBOLIN O],inhibition in vivo at 5 mg/kg,MCF7 [16],71%
same,inhibition in vivo at 10 mg/kg,MCF7 [17],46%
same,inhibition in vivo at 20 mg/kg,MCF7 [18],69%
same,inhibition in vivo at 20 mg/kg,MCF7 [19],73%
same,inhibition in vivo at 5 mg/kg,MCF7 [20],23%
same,inhibition in vivo at 5 mg/kg,MCF7 [21],35%
C[C@@]12C3=CC(=O)OCC3=C[C@H]3OC(=O)[C@](C)([C@H]31)[C@@H](O)[C@H]1O[C@H]12 [WENTILACTONE A],IC50,NCI-H446,1.9 µM
same,IC50,NCI-H460 [22],5.56 µM
C[C@@]12C[C@@H](O)C[C@]3(C)C4=CC(=O)OCC4=C[C@@H](OC1=O)[C@@H]23 [WENTILACTONE B],IC50,SMMC-7721 [23],31 µM
same,IC50,SMMC-7721 [24],19 µM

# Source: ChEMBL document CHEMBL5104094, “Chemistry, biosynthesis and biological activity of terpenoids and meroterpenoids in bacteria and fungi isolated from different marine habitats” (Eur J Med Chem, 2021)
